Values joined by “and” are separate entries in the source; they are usually repeats but may differ in a detail not shown here. Identical values can stand only once.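 Growth conditions: 96-well plates. Treatment: test compound, 48 hours, 5 concentrations. Analysis: linear interpolation between bracketing concentrations; unreached endpoints set to highest concentration. GI50 marks 50% less growth. TGI: total growth inhibition.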
Tests used:
Assay in all cases: NCI anticancer screen, dose series, 48 h
OVCAR-5 ovarian = system: OVCAR-5 ovarian
ACHN renal = system: ACHN renal
EKVX NSCLC = system: EKVX NSCLC
UACC-62 melanoma = system: UACC-62 melanoma
LOX IMVI melanoma = system: LOX IMVI melanoma
U251 CNS = system: U251 CNS
HCT-15 colon = system: HCT-15 colon
UACC-257 melanoma = system: UACC-257 melanoma
RPMI-8226 leukemia = system: RPMI-8226 leukemia
SK-MEL-5 melanoma = system: SK-MEL-5 melanoma

Row | Structure (SMILES) | GI50 (OVCAR-5 ovarian) | TGI (OVCAR-5 ovarian) | GI50 (ACHN renal) | TGI (ACHN renal) | GI50 (EKVX NSCLC) | TGI (EKVX NSCLC) | GI50 (UACC-62 melanoma) | TGI (UACC-62 melanoma) | GI50 (LOX IMVI melanoma) | TGI (LOX IMVI melanoma) | GI50 (U251 CNS) | TGI (U251 CNS) | GI50 (HCT-15 colon) | TGI (HCT-15 colon) | GI50 (UACC-257 melanoma) | TGI (UACC-257 melanoma) | GI50 (RPMI-8226 leukemia) | TGI (RPMI-8226 leukemia) | GI50 (SK-MEL-5 melanoma) | TGI (SK-MEL-5 melanoma)
1 | CCN(CC)CCCOc1ccc2ncnc(Nc3ccc(Oc4cccc(C(F)(F)F)c4)c(Cl)c3)c2c1 | 1.56 µM | 2.99 µM | 1.07 µM | 2.26 µM | 1.26 µM | 2.85 µM | 1.76 µM | 3.22 µM | 1.63 µM | 3.06 µM | – | – | – | – | – | – | – | – | – | –
2 | CN(C)C[C@H]1CCn2c(c(C3=C(c4cn(C)c5ccccc45)C(=O)NC3=O)c3ccccc32)C1 | 5.35 µM | 17 µM | 4.3 µM | 9.87 µM | – | – | 4.15 µM | 7.98 µM | 4.58 µM | 8.56 µM | 3.98 µM | 8.2 µM | 4.51 µM | 14.8 µM | 4.45 µM | 8.45 µM | 4.88 µM | 10.5 µM | 4.09 µM | 7.71 µM
3 | O=C(Nc1ccc2ncnc(Nc3ccc(Oc4cccc(F)c4)c(Cl)c3)c2c1)c1ccc(CN2CCOCC2)cc1 | 4.5 µM | 23.4 µM | 2.26 µM | 9.55 µM | 1.86 µM | 38.2 µM | 1.78 µM | 3.43 µM | 2.24 µM | 5.33 µM | 2.96 µM | 17.7 µM | 2.49 µM | 8.85 µM | 2.36 µM | 7.1 µM | – | – | 1.74 µM | 3.25 µM
4 | COc1cccc2c1C(=O)c1c(O)c3c(c(O)c1C2=O)C[C@@](O)(C(C)=O)C[C@@H]3OC1CC([N+]([O-])(Cc2ccccc2)Cc2ccccc2)C(O)C(C)O1 (stereo not given in full) | – | 3.22 µM | – | 2.73 µM | – | 3.47 µM | – | 2.83 µM | – | 2.41 µM | – | 2.48 µM | – | 2.76 µM | – | 3.17 µM | – | – | – | 2.71 µM
5 | CC(=Nc1ccccc1)C1=C(O)C(Cc2cccc(F)c2)NC1=O (stereo not given) | 0.253 µM | > 100 µM | 0.0694 µM | > 100 µM | – | – | 0.0546 µM | > 100 µM | 0.0667 µM | > 100 µM | 0.0702 µM | > 100 µM | 0.0444 µM | > 100 µM | – | – | 0.0525 µM | > 100 µM | 0.0343 µM | 1.82 µM
6 | COc1cccc(OC(=O)c2ccc(C(F)(F)F)nc2Nc2c(C)cccc2Cl)c1 | 3.13 µM | 21.2 µM | – | – | 36.1 µM | > 100 µM | 17.3 µM | 39.4 µM | 20 µM | 64.8 µM | 19.1 µM | 40.6 µM | 54.1 µM | > 100 µM | 33.4 µM | > 100 µM | 35.8 µM | > 100 µM | 33.3 µM | > 100 µM
7 | O=C1NC(O)c2ccccc2O1 (stereo not given) | – | > 100 µM | – | > 100 µM | – | > 100 µM | – | > 100 µM | – | > 100 µM | – | > 100 µM | – | > 100 µM | – | > 100 µM | – | – | – | > 100 µM
8 | CN(C)CCNC(=O)c1cccc2nc3ccc4cccnc4c3nc12 | – | 2.67 µM | – | 3.27 µM | – | 2.07 µM | – | 1.54 µM | – | 1.51 µM | – | 4.39 µM | – | 2.33 µM | – | 1.63 µM | – | – | – | 1.33 µM
9 | COc1cc2c(c(O)c1C)C(=O)CC(c1ccccc1)O2 (stereo not given) | – | > 100 µM | – | > 100 µM | – | > 100 µM | – | > 100 µM | – | > 10 µM | – | > 100 µM | – | > 100 µM | – | > 100 µM | – | – | – | 37.2 µM
10 | C[C@]12CC[C@@H]3c4ccc(O)cc4CC[C@H]3[C@@H]1CC[C@@H]2NS(=O)(=O)c1cccc(Cl)c1 | 2.59 µM | 8.54 µM | 2.58 µM | 7.69 µM | – | – | 1.86 µM | 4.84 µM | 1.75 µM | 3.4 µM | 2.26 µM | 5.48 µM | 2.28 µM | 7.2 µM | 2.9 µM | 12.3 µM | 2.97 µM | 11.3 µM | 1.72 µM | 3.22 µM
11 | Cn1cnc([N+](=O)[O-])c1Sc1nnnn1C | – | 45.2 µM | – | 30.5 µM | – | 40.8 µM | – | 32 µM | – | 26.6 µM | – | 34.1 µM | – | – | – | 29.8 µM | – | > 100 µM | – | 31.6 µM
12 | COC1=CC(=O)C(Br)=CC1=O | – | – | – | – | – | 44.8 µM | – | 32.1 µM | – | 34.3 µM | – | – | – | 47 µM | – | 31.1 µM | – | 50.6 µM | – | 34.5 µM
13 | COc1cc2c3c(n(CCCCNC(=O)OC(C)(C)C)c(=O)c2cc1OC)-c1cc2c(cc1C3=O)OCO2 | > 100 µM | > 100 µM | 20.1 µM | > 100 µM | > 100 µM | > 100 µM | > 100 µM | > 100 µM | > 100 µM | > 100 µM | > 100 µM | > 100 µM | > 100 µM | > 100 µM | > 100 µM | > 100 µM | – | – | > 100 µM | > 100 µM
14 | CCCN(CCC)CCc1cc(C(C)=O)n(S(=O)(=O)c2ccc(C)cc2)c1 | – | > 100 µM | – | > 100 µM | – | > 100 µM | – | > 100 µM | – | – | – | > 100 µM | – | > 100 µM | – | > 100 µM | – | > 100 µM | – | > 100 µM
15 | O=C1NC(=O)[C@@]2(CC[C@@H](O)C2)c2ccncc21 | – | > 100 µM | – | > 100 µM | – | > 100 µM | – | > 100 µM | – | > 100 µM | – | > 100 µM | – | > 100 µM | – | > 100 µM | – | – | – | > 100 µM
16 | Cc1cc(Br)cc(C)c1NC(=O)C(=O)C(C(=O)c1ccncc1)C1OC(=O)c2ccccc21 (stereo not given) | – | > 100 µM | – | > 100 µM | – | > 100 µM | – | > 100 µM | – | > 100 µM | – | > 100 µM | – | > 100 µM | – | > 100 µM | – | > 100 µM | – | –
17 | Cc1c(NC(=O)CCl)c(=O)oc2c(C)c3occc(=O)c3cc12 | – | 32.4 µM | – | 80.5 µM | – | 38.2 µM | – | – | – | – | – | 27.5 µM | – | – | – | 34 µM | – | 60.1 µM | – | 23.6 µM
18 | NCCOCn1cc(Cc2cccc(OCc3ccccc3)c2)c(=O)[nH]c1=O | – | – | – | – | – | > 100 µM | – | > 100 µM | – | > 100 µM | – | > 100 µM | – | > 100 µM | – | – | – | > 100 µM | – | > 100 µM
19 | COc1ccc(-c2nsc3c2NC(=O)CC3c2ccc3c(c2)OCCO3)cc1 (stereo not given) | 10.2 µM | > 100 µM | 0.892 µM | > 100 µM | – | – | 0.482 µM | > 100 µM | 0.601 µM | > 100 µM | 0.5 µM | > 100 µM | 0.504 µM | > 100 µM | 0.981 µM | > 100 µM | 0.492 µM | 42.4 µM | 0.37 µM | 5.86 µM
20 | S=c1nc(C(c2ccccc2)c2ccccc2)[nH][nH]1 | – | > 100 µM | – | > 100 µM | – | > 100 µM | – | > 100 µM | – | > 100 µM | – | > 100 µM | – | > 100 µM | – | > 100 µM | – | – | – | > 100 µM
21 | O=c1/c(=C/c2c(O)ccc3ccccc23)sc2nc3ccccc3n12 | – | > 100 µM | – | > 100 µM | – | > 100 µM | – | > 100 µM | – | > 100 µM | – | > 100 µM | – | > 100 µM | – | > 100 µM | – | – | – | > 100 µM
22 | O=c1nc(NC(c2ccccc2)(c2ccccc2)c2ccccc2)ccn1CCCl | – | 82.4 µM | – | 99 µM | – | 61 µM | – | – | – | 31.8 µM | – | 28.7 µM | – | > 100 µM | – | – | – | 55.7 µM | – | –
23 | CSC(=Nc1ccccc1Cl)NC(=O)c1ccc(Br)cc1 | – | > 100 µM | – | > 100 µM | – | > 100 µM | – | > 100 µM | – | > 100 µM | – | > 100 µM | – | > 100 µM | – | > 100 µM | – | > 100 µM | – | –
24 | Cc1cc(C)nc(NS(=O)(=O)c2ccc(Nc3c4ccccc4nc4c(C(=O)Nc5ccc(S(=O)(=O)Nc6cc(C)on6)cc5)ccc(Cl)c34)cc2)n1 | – | 44.6 µM | – | > 100 µM | – | 62.5 µM | – | 80.1 µM | – | > 100 µM | – | 30.9 µM | – | > 100 µM | – | 91.3 µM | – | 57.8 µM | – | –
25 | O=C1NC(=O)C(=Cc2c3ccccc3cc3ccccc23)C(=O)N1 | – | – | – | > 100 µM | – | – | – | > 100 µM | – | > 100 µM | – | > 100 µM | – | > 100 µM | – | – | – | > 100 µM | – | > 100 µM
26 | CCCCCCCCCCCC[N+](C)(C)Cc1ccccc1 | 2.86 µM | 13.5 µM | 5.61 µM | 20.4 µM | – | – | – | – | – | – | 1.48 µM | 3.51 µM | 13.1 µM | 34.3 µM | 1.82 µM | 4.25 µM | 1.28 µM | 3.31 µM | 1.33 µM | 2.62 µM
27 | CC(=O)O[C@@]12CO[C@@H]1C[C@H](O)[C@@]1(C)C(=O)[C@H](O)C3=C(C)[C@@H](OC(=O)[C@H](O)[C@@H](NC(=O)OC(C)(C)C)c4ccccc4)C[C@@](O)([C@@H](OC(=O)c4ccccc4)C12)C3(C)C (stereo not given in full) | – | 89.2 µM | – | 50 µM and > 100 µM | – | – | 0.0922 µM | 33.7 µM | – | 79 µM | < 0.005 µM | 50 µM and > 100 µM | 0.0441 µM and 0.327 µM | 50 µM and > 100 µM | 32.3 µM | > 100 µM | < 0.005 µM | 34 µM and 24.5 µM | < 0.005 µM | 9.05 µM and 14.6 µM
28 | COC(NC(N)=O)C(=O)O (stereo not given) | – | > 100 µM | – | > 100 µM | – | > 100 µM | – | > 100 µM | – | – | – | > 100 µM | – | > 100 µM | – | > 100 µM | – | > 100 µM | – | > 100 µM
